Test results reported in PubChem BioAssay (NCI).
Values after ≈ are worked out from the molar mass of the structure shown.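 Five concentrations, 48 hours, 96-well plates. GI50 = concentration required for 50% inhibition of growth. At the TGI there is no net growth.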

Experiments:
Test in all cases: growth of human tumour cells (NCI), 48 h
786-0 renal = system: 786-0 renal
HCC-2998 colon = system: HCC-2998 colon
IGROV1 ovarian = system: IGROV1 ovarian
NCI-H23 lung = system: NCI-H23 lung
RPMI-8226 leukemia = system: RPMI-8226 leukemia
SK-MEL-28 melanoma = system: SK-MEL-28 melanoma
SN12C renal = system: SN12C renal
SNB-19 CNS = system: SNB-19 CNS
UO-31 renal = system: UO-31 renal
NCI-H226 lung = system: NCI-H226 lung

| SMILES | GI50 (786-0 renal) | TGI (786-0 renal) | GI50 (HCC-2998 colon) | TGI (HCC-2998 colon) | GI50 (IGROV1 ovarian) | TGI (IGROV1 ovarian) | GI50 (NCI-H23 lung) | TGI (NCI-H23 lung) | GI50 (RPMI-8226 leukemia) [µM] | TGI (RPMI-8226 leukemia) [µM] | GI50 (SK-MEL-28 melanoma) | TGI (SK-MEL-28 melanoma) | GI50 (SN12C renal) | TGI (SN12C renal) | GI50 (SNB-19 CNS) | TGI (SNB-19 CNS) | GI50 (UO-31 renal) [µM] | TGI (UO-31 renal) [µM] | TGI (NCI-H226 lung) | GI50 (NCI-H226 lung) [µg/mL] |
| --- | --- | --- | --- | --- | --- | --- | --- | --- | --- | --- | --- | --- | --- | --- | --- | --- | --- | --- | --- | --- |
| O=C(Nc1ccc2[nH]c(=S)sc2c1)Nc1ccccc1F | 51.6 µM | > 100 µM | 30.6 µM | > 100 µM | 3.58 µM | > 100 µM | 35.8 µM | > 100 µM | 18 | > 100 | 42.2 µM | > 100 µM | 41.9 µM | > 100 µM | 41.8 µM | > 100 µM | 4.09 | 22.5 |  |  |
| CC(C)(CN1CCCCC1)C(=O)/C=C/c1ccc(Cl)cc1 |  | 9.68 µM |  | 26.3 µM |  |  |  | 6.76 µM |  | 10.1 |  | 22.6 µM |  | 7.24 µM |  | 17 µM |  | 20.2 | 14.7 µM |  |
| O=c1nc(NC(c2ccccc2)(c2ccccc2)c2ccccc2)ccn1CCNCCn1ccc(NC(c2ccccc2)(c2ccccc2)c2ccccc2)nc1=O |  | 31.5 µM |  | 17.1 µM |  | 56.2 µM |  | 26.8 µM |  |  |  | 22.2 µM |  | 44.1 µM |  | 23.4 µM |  | > 100 | 34.7 µM |  |
| NC1=C(c2nc(-c3ccccc3)cs2)C(c2ccc(Br)cc2)c2c(c3ccccc3oc2=O)O1 (stereo not drawn) | 75.6 µg/mL | > 150 µg/mL | 130 µg/mL | > 150 µg/mL | 96 µg/mL | > 150 µg/mL | 71 µg/mL | > 150 µg/mL |  |  | 79.9 µg/mL | > 150 µg/mL | 85.9 µg/mL | > 150 µg/mL | 58.3 µg/mL | > 150 µg/mL |  |  | 94 µg/mL | 22.3 (≈ 42.1 µM) |
| CN(C)CCCN1c2ccccc2C(C)(C)c2ccccc21 |  | 27.7 µM |  |  |  | 31.7 µM |  | 30.4 µM |  | 28.5 |  | 31.4 µM |  | 27.9 µM |  | 28.8 µM |  | 27.4 | 29.7 µM |  |
| O=C1CCCC(=O)N1CCc1c[nH]c2ccccc12 |  | > 100 µM |  | > 100 µM |  | > 100 µM |  | > 100 µM |  |  |  | > 100 µM |  | > 100 µM |  | > 100 µM |  | > 100 | > 100 µM |  |
| Cc1ccc([N+](=O)[O-])cc1NC(=O)c1cccc([N+](=O)[O-])c1O |  | > 100 µM |  |  |  | 98.6 µM |  | 48.4 µM |  | 68.3 |  | 51.2 µM |  | > 100 µM |  | > 100 µM |  | 36.2 | 51.9 µM |  |
| Cc1cc(Cc2cc(C)cc(C(C)(C)C)c2O)c(O)c(Cc2cc(C)cc(C(C)(C)C)c2O)c1 |  | 9.09 µM |  |  |  | 14 µM |  | 5.34 µM |  | > 20.4 |  | 16.7 µM |  | 8.28 µM |  | 15.7 µM |  | 10.4 | 11.5 µM |  |
| C/C=C1/CCC2c3[nH]c4ccccc4c3CCN2C1 (stereo not drawn) |  | > 100 µM |  |  |  | > 100 µM |  | > 100 µM |  |  |  | > 100 µM |  | > 100 µM |  | > 100 µM |  | > 100 | > 100 µM |  |
| CCCC/C=C1\CCC(C)(CN(C)C)C1=O (stereo not drawn) |  | > 100 µM |  | > 100 µM |  | > 100 µM |  | > 100 µM |  |  |  | > 100 µM |  | > 100 µM |  |  |  | > 100 |  |  |
